From patent US20260373266A1, “PROTEIN DEGRADERS AND USES THEREOF” (KYMERA THERAPEUTICS, INC., priority 2022, published 2026) come the findings set out here.

The target in this assay is T1, DCAF1 WD40 domain (residues 1077-1390) (Homo sapiens, UniProt Q9Y4B6).
T1 construct: DCAF1 WD40 domain (residues 1077-1390)
T1 sequence (Q9Y4B6 1077-1390): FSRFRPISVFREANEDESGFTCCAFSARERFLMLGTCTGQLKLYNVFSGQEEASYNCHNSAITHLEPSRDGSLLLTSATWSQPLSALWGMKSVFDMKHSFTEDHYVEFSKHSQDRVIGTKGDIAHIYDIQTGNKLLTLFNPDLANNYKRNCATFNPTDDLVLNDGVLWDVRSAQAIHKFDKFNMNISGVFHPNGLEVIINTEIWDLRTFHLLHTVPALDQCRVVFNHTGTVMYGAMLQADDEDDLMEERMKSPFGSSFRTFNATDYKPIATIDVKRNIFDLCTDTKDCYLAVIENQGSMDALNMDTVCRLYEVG
Description: DCAF1 binding assay by SPR (Biacore 8K+), DCAF1-3 KD. Conditions: 25 °C, read-out: DCAF1-3 SPR (KD). A general note: Surface plasmon resonance follows binding to a sensor surface in real time, without labels.
The term Kd denotes the free concentration of one partner at which half of the binding sites on the other are occupied at equilibrium, for simple one-to-one binding. Consider `NC(=O)CCc1cccc(N2CCC[C@H]3[C@@H]2CCN3c2cc(N3CCCCC3)ccn2)c1` [I-881], for which the equilibrium dissociation constant (Kd) was less than 10 µM.

Regarding `C[C@@H](NC(=O)c1cn[nH]c1-c1c(F)cccc1F)c1ncc[nH]1` [I-839], the Kd is more than 200 µM.

As to `Cc1cc(Cl)cc([C@H](CC(N)=O)NC(=O)c2cn[nH]c2-c2c(C)cccc2F)c1` [I-737], the dissociation constant (Kd) is more than 200 µM.

As for `CCN1CCN(c2ccnc(NC3CCCN(c4cccc(F)c4)C3)n2)CC1` (stereo not drawn) [I-24], the Kd is more than 200 µM.

Take `NC(=O)C[C@](NC(=O)c1c[nH]nc1-c1ccccc1F)(c1cccc(Cl)c1)C1CC1` [I-254]: the equilibrium dissociation constant (Kd) is more than 200 µM.

Regarding `N#Cc1[nH]cc(C(=O)N[C@@H](CC(N)=O)c2cccc(Cl)c2)c1-c1ccccc1F` [I-598], the Kd was less than 10 µM.

For `Oc1ccc(N2CCC[C@H]3[C@@H]2CCN3c2cc(N3CC4CC(C4)C3)ccn2)cc1` [I-718], the equilibrium dissociation constant (Kd) is less than 10 µM.

As to `Cc1ccccc1C(=O)c1[nH]cc(C(=O)N[C@@H](CC(N)=O)c2cccc(Cl)c2)c1-c1c(C)cccc1F` [I-626], the Kd was less than 10 µM.

For the compound `CNC(=O)C[C@H](NC(=O)c1c[nH]c(C(=O)COCCOCCOCCOCCOCCN)c1-c1c(F)ccc(F)c1C)c1cccc(Cl)c1` [I-820], the Kd was less than 10 µM.

As for `OCCOCCOCCOCCOCCC1CCCCN1c1ccnc(N2CC[C@@H]3[C@H]2CCCN3c2cccc(F)c2)c1` (stereo partly drawn) [I-971], the Kd was less than 10 µM.

With `Cc1cccc(C(CC(N)=O)NC(=O)c2cn[nH]c2-c2ccccc2F)c1` (stereo not drawn) [I-331], the dissociation constant (Kd) is more than 200 µM.

`NC(=O)C[C@](CC1CC1)(NC(=O)c1c[nH]nc1-c1ccccc1F)c1cccc(Cl)c1` [I-255]: the Kd was more than 200 µM.

Regarding `Cc1sc2c(c1C)C(c1ccc(Cl)cc1)=N[C@@H](CC(=O)NCCOCCOCCOCCCc1ccc(C(=O)c3[nH]cc(C(=O)N[C@@H](CC(N)=O)c4cccc(Cl)c4)c3-c3c(F)ccc(F)c3C)cc1)c1nnc(C)n1-2` [I-908], the Kd was less than 10 µM.

For the compound `Fc1cccc(N2CCC[C@@H](Sc3cc(N4CCOCC4)ccn3)C2)c1` [I-113], the dissociation constant (Kd) is more than 200 µM.

Consider `CN1CCN(c2ccc(N3CCC[C@@H](Nc4cc(N5CCOCC5)ccn4)C3)nc2)CC1` [I-686], for which the dissociation constant Kd is more than 200 µM.

In the case of `NC[C@@H]1C[C@@H](Nc2cc(N3CCCCC3)ccn2)CN(c2cccc(F)c2)C1` [I-1040], the equilibrium dissociation constant (Kd) lay in the range of 10 to 100 µM.

Turning to `NC(=O)C[C@H](NC(=O)c1c[nH]nc1-c1c(F)cccc1F)c1cccc(Cl)c1` [I-150], the equilibrium dissociation constant (Kd) is less than 10 µM.

Regarding `c1ccc([C@H]2CCC[C@@H](Nc3cc(N4CCCCC4)ccn3)C2)cc1` [I-754], the Kd lay in the range of 10 to 100 µM.

Consider `CC1(Nc2cc(N3CCOCC3)ccn2)CCCN(c2cccc(F)c2)C1` (stereo not drawn) [I-222], for which the Kd is more than 200 µM.

As to `C[C@@H]1CCCCC1c1[nH]ncc1C(=O)N[C@@H](CC(N)=O)c1cccc(Cl)c1` (stereo partly drawn) [I-724], the dissociation constant Kd was less than 10 µM.

With `O[C@@H]1CC[C@@H](Nc2cc(N3CCCCC3)ccn2)C[C@H]1c1ccccc1` [I-985], the Kd was in the range of 10 to 100 µM.

On to `O=C(O)C[C@H](NC(=O)c1cn[nH]c1-c1ccccc1F)c1cccc(Cl)c1` [I-740], for which the Kd lay within 10 to 100 µM.

Consider `COc1cc(N[C@@H]2CCCN(c3cccc(F)c3)C2)cc(N2CCOCC2)c1` [I-547], for which the Kd is more than 200 µM.

Regarding `Fc1cccc(N2CCC[C@@H](Nc3cc(N4CC5CCC(CC5)C4)ccn3)C2)c1` [I-618], the Kd is less than 10 µM.

Take `c1cc(N2CCC[C@@H](Nc3cc(N4CCOCC4)ncn3)C2)c2cnccc2c1` [I-395]: the Kd was more than 200 µM.

For the compound `O=C1C[C@@H]([C@H](NC(=O)c2c[nH]nc2-c2ccccc2F)c2cccc(Cl)c2)CN1` [I-223], the Kd is more than 200 µM.

For the compound `CO[C@@H]1C[C@@H](Nc2cc(N3CCOCC3)ncn2)CN(c2cccc(F)c2)C1` [I-164], the Kd is more than 200 µM.

For `OCCCc1ccc(N2CCC[C@@H](Nc3cc(N4CCOCC4)ccn3)C2)cc1` [I-873], the Kd was more than 200 µM.

`CN1CCN(c2ccnc(N[C@@H]3CCCN(c4cccc(F)c4)C3)n2)CC1` [I-315]: the dissociation constant (Kd) was more than 200 µM.

In the case of `NC(=O)N1Cc2ccc(N3CCC[C@H]4[C@@H]3CCN4c3cc(N4CCCCC4)ccn3)cc2C1` [I-956], the Kd was less than 10 µM.
